Assay results taken from US5919457A, “TXU-5/B53-PAP antiviral biotherapeutic agent for the treatment of AIDS” (priority 1996, dated 1999).
Values joined by “and” are separate entries in the source; they are usually repeats but may differ in a detail not shown here. Equal entries are not always repeated.

How the values were obtained:
[1] = test system: HIV-1 isolate G-6912 (zidovudine-resistant); settings: read-out: IC50 (concentration at which 50% of the reverse transcriptase activity is inhibited); cited from earlier work
[2] = test system: HIV-1 isolate G-9106 (zidovudine-resistant); settings: read-out: IC50 (concentration at which 50% of the reverse transcriptase activity is inhibited); cited from earlier work
HIV-1 [3] = test system: HIV-1; set-up: species or system Hu-PBL-SCID mice; settings: mouse, in vivo
HIV-1 [4] = test system: HIV-1; set-up: species or system Hu-PBL-SCID mice; settings: mouse, in vivo; remark: listed apart in the source
Description: Mutant C.B 17 mice are used as model systems to examine the in vivo homing, engraftment, and growth patterns of normal and malignant human hematopoictic cells. Lapidot et al., Blood, 80, 32a (1992). […] Mosier et al., Science, 251, 791 (1991). […] Mosier et al., cited supra. Hu-PBL-SCID mice were generated as described previously. Mosier et al., cited supra. Non-toxic doses of TXU-5/B53-PAP (20%-50% of LD10) were administered intraperitoneally by injecting half of the total dose as a bolus and delivering the remainder i.p. over 2 weeks using Alzet micro-osmotic pumps.
Two weeks after infection with HIV-1, mice were electively killed and fresh peritoneal lavage cells as well as spleen cells were isolated, cocultured with phytohemagglutinin(PHA)-stimulated human peripheral blood mononuclear cells from an HIV-1 antibody negative donor, and culture supernatants were tested every 3-4 days for a maximum of 28 days for the presence of HIV-1 antigen with a commercially available enzyme immunoassay (Abbott Laboratories, North Chicago, Ill.) that detects primarily the core p24 antigen of HIV-1, as previously described. Goudsmit et al., J. Infectious Diseases, 155, 558 (1987). In addition to this culture method, DNA was also isolated from the peritoneal lavage cells as well as splenocytes for detection of HIV-1 DNA by PCR amplification of a 115 b.p. sequence in the gag region of the HIV-1 genome using two 29-base oligonucleotide primers, SK38 and SK39, that flank the region to be amplified. Ou C-Y et al., Science, 239, 295 (1988) DNA samples were also examined for the presence of human DNA by PCR amplification of a 110-bp fragment from the first exon of the human β-globin gene using two 20-base oligonucleotide primers, PCO3 and PCO4, that flank the region to be amplified, as previously described by Uckun et al. in Blood, 79, 2201 (1992).

Cc1cn([C@H]2C[C@H](N=[N+]=[N-])[C@@H](CO)O2)c(=O)[nH]c1=O [ZDV, zidovudine]
IC50 [1]: 1500 nM | IC50 [2]: 8.7 µM | gp120 on CD4+ lymphocytes from the peritoneal cavity (flow cytometry) (HIV-1 [3]): presence of gpl120 on CD4+ cells | Hu-PBL-SCID mice HIV-1 negative (HIV-1 [4]): 3 of 10 | PCR + Cx: mice PCR-positive and culture-positive (footnote c) (HIV-1 [4]): 4/8 and 4 | PCR + Cx: mice PCR-positive but culture-negative (footnote b) (HIV-1 [4]): 4/8 and 3 | PCR Only: PCR- mice/analyzed (HIV-1 [4]): 2/2 | Peritoneal Lavage Cells PCR+ (mice positive/analyzed) (HIV-1 [4]): 7/10 | Peritoneal Lavage and Spleen Mixed Cx+ (cultures positive/analyzed) (HIV-1 [4]): 4/8 | Spleen Cells PCR+ (mice positive/analyzed) (HIV-1 [4]): 5/10
